# Measurements taken from US20220362329A1, “TREATING ACUTE LIVER DISEASE WITH TLR-MIK INIHIBITORS” (Yeda Research and Development Co. Ltd., priority 2020, published 2022).
# What was measured:
# [1] = system: ALF mouse models; experiment: Liver enzymes activity measurement (serum ALT and AST) in ALF mouse models; assay type: in vivo, mice; conditions: for ALT activity in serum / AST activity in serum: APAP-induced ALF model, inhibitor i.p. 1 hour after 500 mg/kg APAP
# Procedure: (§1) Mouse models—8 weeks old C57BL6 male mice were injected intraperitoneally with 500 mg/kg body mass acetaminophen (APAP) in PBS or 300 mg/kg of thioacetamide (TAA) in PBS, 20 hours prior to sample collection. To avoid known circadian effects, all injections were performed between 1 pm and 2 pm. Control mice were injected with vehicle (PBS). For antibiotic treatment, mice were given a cocktail of ampicillin (1 g/l), kanamycin (1 g/l), vancomycin (0.5 g/l) and metronidazole (1 g/l) in drinking water for two weeks. MyD88 and Trif double knockout mice were 8 weeks old, males on C57BL6 background^55. All experimental procedures involving mice were approved by the local IACUC.
# MYC inhibition—MYC inhibitor KJ-Pyr-9 or vehicle control was injected intraperitoneally 2 hours following injection of APAP or PBS vehicle control. […] Mice were injected with 0.5 ml per 20 g, so the final dose of KJ-Pyr-9 was 25 mg per kilogram of body mass.
# (§2) Inhibition of MAPK pathway proteins—The inhibitors listed in Table 1 hereinbelow were injected intraperitoneally 1 hour following injection of 500 mg/kg APAP or corresponding PBS vehicle. Briefly. The inhibitors were dissolved in 5% DMSO in PBS to a final injection volume of 400 μl for 20 g mouse. Control mice were injected with 5% DMSO in PBS vehicle.
# [2] = system: APAP-induced ALF; conditions: intravenous; cited from earlier work
# [3] = system: ALF mouse models; experiment: Histology score of H&E stained liver sections in ALF mouse models; assay type: in vivo, mice; conditions: for liver damage, histopathological analysis: APAP-induced ALF model, inhibitor i.p. 1 hour after 500 mg/kg APAP
# Procedure: as §1
# Histology—Sample from the left lobe of the liver was fixed in 4% paraformaldehyde, embedded in paraffin, sectioned and stained with hematoxylin and eosin (H&E). Slides were scored by a blinded veterinary pathologist for necrosis and hemorrhage on a scale from 0 (healthy) to 5 (most severe).
# (§3) MYC inhibition—MYC inhibitor KJ-Pyr-9 or vehicle control was injected intraperitoneally 2 hours following injection of APAP or PBS vehicle control. Briefly, 10 mg of KJ-Pyr-9 (Tocris, cat 5306) was dissolved in 1 ml of DMSO and then combined with Tween 80 and 5% dextrose 1:1:8 by volume. Mice were injected with 0.5 ml per 20 g, so the final dose of KJ-Pyr-9 was 25 mg per kilogram of body mass.
# as §2
# [4] = system: Ly6C-positive monocytes; experiment: Measurement of monocyte infiltration by FACS in ALF mouse models; assay type: in vivo, mice; conditions: for monocyte infiltration: APAP-induced ALF model, inhibitor i.p. 1 hour after 500 mg/kg APAP
# Procedure: as §1
# Measurement of monocyte infiltration—Livers harvested from mice were finely chopped with sterile scissors and digested with 4 ml of pre-warmed 0.4 mg/ml protease and 0.1 U/ml collagenase D (EBS buffer: 8 g/l NaCl, 0.4 g/l KCl, 88 mg/l NaH2PO4.H2O, 120 mg/l Na2HPO4.H2O, 2.38 g/l HEPES, 0.35 g/l NaHCO3, 0.42 g/l CaCl2) for 30 minutes at 37° C. while shaking Following, 10 ml of cold PBS was added and the suspension was filtered through a 100 μm mesh. To deplete hepatocytes, samples were centrifuged at 30 g for 5 minutes and the supernatant was transferred to new tubes. Cells were collected by centrifugation at 580 g. To lyse red blood cells, 1 ml of Gibco™ ACK Lysing Buffer was added and cells were incubated at room temperature for one minute. Subsequently, cold PBS was added and cells were collected by centrifugation at 580 g.
# Receptors on the cells were first blocked with TruStain FcX anti-mouse CD16/32, then the cells were washed with FACS buffer (PBS without calcium and magnesium, 1% FCS), collected by centrifugation at 580 g and stained with CD45-PECy7 (Biolegend, 30F11, cat. 103114), F4/80-FITC (Serotec, Cl:A3-1, cat. G00018) and Ly6C-APC (Biolegend, HK14, cat. 128016) antibodies for 1 hour on ice. Finally, the cells were washed with FACS buffer, collected by centrifugation at 580 g, resuspended in FACS buffer, filtered through 40 μm mesh and measured on DB LSRFortessa. Data was analysed using FlowJo software.
# as §3
# Inhibition of MAPK pathway proteins—The inhibitors listed in Table 1 hereinbelow were injected intraperitoneally 1 hour following injection of 500 mg/kg APAP or corresponding PBS vehicle. Briefly. The inhibitors were dissolved in 5% DMSO in PBS to a final injection volume of 400 μl for 20 g mouse. […]
# [5] = system: ALF mouse models; experiment: Survival of APAP-administered mice; assay type: in vivo; conditions: n=15 per group
# Procedure: as §1, §3
# [6] = system: stellate, endothelial and Kupffer cells; experiment: Single cell RNA sequencing of liver cells; assay type: in vivo, mice; conditions: for number of differentially expressed genes: pseudobulk counts
# Procedure: as §1
# Following, liver was dissected, placed in cold EBS solution, shaken vigorously with forceps for separation of single cells, followed by filtration through a 100 μm mesh. Hepatocytes were depleted by centrifugation at 30 g for 5 minutes. Cells were then collected by centrifugation at 580 g and resuspended in cold PBS. To enrich for stellate cells, cells with retinoid fluorescence in the Pacific Blue channel were sorted using a BD FACSAria III. Following, stellate cells were mixed with unsorted cells, spun down, resuspended in PBS with 0.04% BSA and counted using Neubauer chamber.
# 10× library preparation and sequencing—Single cells were captured and processed using the 10× Genomics Chromium 3′ Single Cell RNA seq protocol according to the manufacturers' manual. Subsequently, RNA was sequenced using NextSeq® 500/550 High Output Kit v2 (Illumina cat no. 20024906).
# as §3
# Mapping: Single cell RNA sequencing data were demultiplexed, mapped to the GRCm38 mouse genome and UMIs were counted using the Cell Ranger Single-Cell Software Suite 2.1.1. Filtering and doublet removal: Cells with less than 100 detected transcripts and more than 10% mitochondrial reads were removed. Clustering analysis was used to identify populations of thrombocytes, erythrocytes, neutrophils and mast cells. Following, a second filtering was effected using 600 detected transcripts. […] The second step was necessary, as there were many low quality cells with low threshold. Following, doublets were identified by finding clusters of cells expressing gene expression patterns of two cell types at the same time. Marker sets used were Dcn, Colec11, Ecm1, Cxcl12, Sod3, Angptl6, Rgs5, Reln, Tmem56, Rbp1, G0s2, Rarres2, Acta2, Tagln for stellate cells; Gpihbp1, Aqp1, Clec4g, Dnase113, Fabp4, Ptprb, Kdr, Gpr182 for endothelial cells; Alb, Ttr, Ambp, Rbp4, Cyp2e1, Spp1 for hepatocytes; Cd3e, Cd3g, Cd3d, Lat, Thy1, Cxcr6, Nkg7, Cd4, Cd8b1, Klra4, Ncr1, Gzmb, Lck, Txk, Ms4a4b, Ccl5 for T cells; Cd79b, Cd79a, Ms4a1, Siglecg, Fcmr, Cd19, Fcer2a for B cells; Adgre1, Cd51, Clec4f, Timd4, Folr2, C1qa, C1qb, C1qc, Vsig4, Xcr1, Cd209a, Itgax, Siglech, Chil3, F13a1, S100a4, Lgals3, Gda, S100a9, Retnlg for macrophages, DCs and neutrophils; Alas2, Hbb-bt, Hbb-bs, Hba-a2, Hba-a1 for erythrocytes. Clustering—All cells from all 22 samples were first clustered using R package Seurat v2.3.4 FindClusters function^56. Genes that were present in less than 3 cells were removed and then highly variable genes were identified as having mean of non-zero values between 0.0125 and 3 and standard deviation higher than 0.5. Dimensionality reduction was effected with PCA and first 50 PCs were used for clustering.
# As the liver population is very complex, it was decided to perform stepwise clustering. First, expression of Ecm1, Ptprc, Ptprb, Epcam, Msln and Alb in the obtained clusters was determined. […]
# [7] = both ALF models (APAP, TAA), KJ-Pyr-9 25 mg/kg i.p.
# [8] = steady state, endothelial cells
smiles,measurement,setting,value
"CN1C(=O)C(Cc2c[nH]c3ccccc23)NC1=S (centres unmarked) [RIP1 inhibitor, Nec1]",ALT activity in serum,[1],significantly reduced
same,AST activity in serum,[1],significantly reduced
CC(=O)N[C@@H](CS)C(=O)O [N-acetylcysteine],adverse effects including anaphylactic reaction,[2],≤ 15 % of the cases
same,effectiveness of the intervention,[2],only very partially effective
"C[S+]([O-])c1ccc(-c2nc(-c3ccncc3)c(-c3ccc(F)cc3)[nH]2)cc1 (centres unmarked) [p38 inhibitor, SB203580]",ALT activity in serum,[1],significantly reduced
same,AST activity in serum,[1],significantly reduced
same,"liver damage, histopathological analysis",[3],significantly reduced liver damage
same,monocyte infiltration,[4],significant reduction
"COc1cc(O)c2c(c1)/C=C/C[C@H](O)[C@H](O)C(=O)/C=C\C[C@H](C)OC2=O [TAK1 inhibitor, 5Z-7-Oxozeaenol]",AST activity in serum,[1],significantly reduced
same,"liver damage, histopathological analysis",[3],significantly reduced liver damage
same,monocyte infiltration,[4],significant reduction
"CC[C@@H]1[C@H](F)C(=O)N[C@@H]1COc1nccc2cc(C(N)=O)c(OC)cc12 [IRAK4 inhibitor, PF 06650833]",ALT activity in serum,[1],significantly reduced
same,AST activity in serum,[1],significantly reduced
same,"liver damage, histopathological analysis",[3],significantly reduced liver damage
same,monocyte infiltration,[4],significant reduction
"NC(=O)c1ccc(-c2cc(-c3ccc([N+](=O)[O-])cc3)nc(-c3ccco3)c2)cc1 [MYCi, KJ-Pyr-9]",Serum ALT activity,[1]; [7],attenuated
same,Serum AST activity,[1]; [7],attenuated
same,"hepatic damage, tissue histology by H&E staining","[3]; during ALF (FIGS. 4F-G APAP, 19C-D TAA), KJ-Pyr-9 25 mg/kg i.p.",reduced hepatic damage
same,infiltration of Ly6C-positive monocytes (F4/80 and Ly6C double-positive cells within the immune CD45-positive population),"[4]; ALF mice (FIGS. 4C APAP, 19A TAA), KJ-Pyr-9 25 mg/kg i.p. 2 hours after APAP",dramatic reduction
same,mortality,[5],attenuated
same,expression of metallothionein 1 and 2 (Mt1 and Mt2),[6]; ALF,remained unaffected
same,neutrophil infiltration,[6]; ALF,not affected
same,total gene expression level,[6]; ALF,lower total gene expression level
same,expression of neutrophil attractant chemokine Cxcl2,"[6]; ALF, Kupffer cells",did not get downregulated
same,expression of the 82 genes constituting the common activation signature,"[6]; ALF, activated stellate, Kupffer and endothelial cell subsets",markedly attenuated
same,drop of median number of detected transcripts,"[6]; ALF, stellate cells",~4 times
same,upregulation of senescence and cell cycle arrest marker Cdkn1a (coding p21),"[6]; ALF, stellate cells",attenuated
same,median number of detected transcripts,"[6]; ALF, stellate cells, 3500 without MYC inhibition",945
same,"activated populations (AAs, AAe, AAk)",[6]; during ALF induction,did not arise
same,Map3k8 expression (coding for TPL2),"[6]; during ALF, activated resident populations",strong induction
same,infiltration of Ly6C-positive monocytes to the liver (single cell transcriptomic data),[6]; either APAP- or TAA-induced ALF,near-total reduction
same,effect on the gene expression landscape,[6]; in the absence of liver failure,did not feature a notable effect
same,differentially expressed genes,"[6]; steady state, Kupffer cells",downregulation of genes related to antigen processing and presentation
same,number of differentially expressed genes,"[6]; steady state, Kupffer cells",94 genes
same,differentially expressed genes,[6]; [8],downregulation of genes of the AP1 family
same,number of differentially expressed genes,[6]; [8],5 genes
same,gene ontology analysis of differentially expressed genes,"[6]; steady state, stellate cells",downregulation of genes coding for ribosome proteins and other components of the translation machinery
same,number of differentially expressed genes,"[6]; steady state, stellate cells",148 genes
